This is an account of results in PMC8267647, “Metallacarborane Derivatives Effective against Pseudomonas aeruginosa and Yersinia enterocolitica” (International Journal of Molecular Sciences, 2021).

Data set [1] concerns Pseudomonas aeruginosa strain PCM 2058. Put plainly: Bacterial growth inhibition IC50 in LB medium. The class given is cell-based. As to conditions: 8-h time point, Luria-Bertani medium, 37 °C; ± SEM; read-out: IC50 for growth inhibition, Pa 2058. The protocol:
(§1) Bacterial growth inhibition was measured on a Spark 10 M (Tecan, AT) microplate reader as described previously (Swietnicki et al., 2019). Briefly, a bacterial culture in LB medium grown at 37 °C overnight was diluted 1:100 with a fresh medium and aliquoted into a 96-well plate at 98 μL/well with a multichannel pipette. A 2 μL aliquot of compound serially diluted in DMSO was added in triplicates, the plate was covered with a lid or a transparent plate sealer, and incubated at 37 °C for up to 24 h. Bacterial growth was monitored by following an A600 reading every hour. After the experiment, the data were stored in Excel format, transferred into KaleidaGraph software (Synergy Software, Reading, PA, USA) and the A600 was plotted versus log [Concentration]. The IC50 values were determined by fitting the readings at the 8 h time point to a sigmoidal model of inhibition. Each experiment was repeated at least 3 times to verify the values.

In data set [2] the test system is Pseudomonas aeruginosa strain PCM 499. Put plainly: Bacterial growth inhibition IC50 in LB medium. The format is cell-based. As to conditions: 8-h time point, Luria-Bertani medium, 37 °C; ± SEM; read-out: IC50 for growth inhibition, Pa499. The protocol: as §1
The test system of data set [3] is Yersinia enterocolitica strain PCM 2080. In words: Bacterial growth inhibition IC50 in LB medium. The format is cell-based. To be noted: 8-h time point, Luria-Bertani medium, 37 °C; ± SEM; read-out: IC50 for growth inhibition, Ye 2080. The protocol:
as §1

Data set [4] relates to Yersinia enterocolitica strain PCM 2090. Put plainly: Bacterial growth inhibition IC50 in LB medium. The format is cell-based. To be noted: 8-h time point, Luria-Bertani medium, 37 °C; ± SEM; read-out: IC50 for growth inhibition, Ye 2090. As for the experimental part: as §1
Data set [5] deals with Y. enterocolitica strain PCM 2080 grown in the presence of 200 μM compounds. In words: Cross-resistance generation: IC50 on compound-evolved bacteria. The class given is cell-based, Yersinia enterocolitica. As to conditions: read-out: Resistance (IC50 value against the selected compound). As for the experimental part: as §1
The evolution was performed in parallel using blood agar and LB agar plates prepared in-house. Briefly, a 200 μL aliquot of 200 μM compound in PBS was added to a fresh agar plate, spread on the surface, and left to dry in a BSC cabinet for approximately 30 min. After that time, a single colony from an overnight culture on a plate was spread on the surface before the plate was covered with a lid and left at 37 °C to incubate overnight. The procedure was repeated at least nine times for each plate. After the last step, a single colony was selected from a plate and added to a 3 mL aliquot of LB medium. […] Dual selection on different plates was necessary in cases where the growth inhibition was too strong to obtain single colonies on LB agar plates. […] Until then, the colonies were supplied from bacteria grown on the blood agar plates.

For another data set, the system named is BALB/3T3. Put plainly: Antiproliferative SRB assay. The format is cell-based, mouse. As to conditions: SRB method, 72 h of treatment; highest concentration 100 μM; read-out: IC50 72h (95% CI) BALB/3T3. The source says: (§2) Rockville, Maryland, USA).
A further data set concerns MCF 10A. Put plainly: Antiproliferative SRB assay. The class given is cell-based, human. As to conditions: SRB method, 72 h of treatment; highest concentration 100 μM; read-out: IC50 72h (95% CI) MCF 10A.
Description: as §2

In data set [6] the test system is zebrafish (Danio rerio) larvae. In words: Danio rerio toxicity assay (modified Fish Embryo Toxicity test). The format is in vivo. To be noted: for mortality rate: day 5; for visible morphological deformities: concentrations up to 10 μM; for mortality (share of the population): 10 μM, day 5 post-exposure. The protocol: To determine acute toxicity of examined compounds modified Fish Embryo Toxicity (FET) test was performed of zebrafish (Danio rerio) according to OECD Test Guideline 236. Briefly, the collected embryos were transferred to a Petri dish with E3 medium (5 mM NaCl, 0.33 mM MgCl2, 0.33 mM CaCl2, 0.17 mM KCl; pH 7.2) and then placed in 24-well plates, 5 embryos per well, 10 per group. Stock solutions of boron cluster compounds were prepared in DMSO. In these experiments, three series of solutions with different concentrations were employed, which were freshly prepared by dissolving stock solutions in the E3 solution each time directly before addition to the wells. The solutions were changed once daily and the embryos were maintained in the incubator at 28.5 °C. Zebrafish embryos were evaluated for developmental abnormalities and viability at 24 h intervals for up to 5 days using a stereomicroscope (Zeiss Axio Vert, ZEISS, Germany). Morphological deformities of the heart, dorsal string, and tail development were measured and compared with the control embryos. Image analysis was performed to determine the percentage of dead and malformed embryos over time using Zeiss software. The experiment was performed in triplicate. Fish were taken from own fish facility of The Centre of Experimental Medicine, Medical University of Lublin. For the experiment AB OMD strain was used.
Figure 4 Toxicity of selected compounds on zebrafish (Danio rerio) larvae. Fish larvae were grown in 6-well plates in the presence of compounds for up to 5 days and the morphological deformities were analyzed from images as described under Materials and Methods. Representative photographs are shown. S, scoliosis; TA, tail autophagy; PE, pericardial edema.
Figure 5 Mortality rates of selected compounds on zebrafish (Danio rerio) larvae. The population size (n = 10) from Figure 4 was followed up to day 5 as described under Materials and Methods. Representative graphs are shown.

The test system of data set [7] is drug-resistant Y. enterocolitica strain 2080. In words: SEM of drug-resistant bacteria. To be noted: for bacterial growth seen under SEM: bacteria passaged at least nine times with 200 μM compound; for mechanism of biological activity: from SEM, 200 μM. The class given is cell-based, Yersinia enterocolitica. The protocol: Scanning electron microscopy of Y. enterocolitica was performed at a low accelerating voltage of the primary beam without any coating or heavy-metal contrasting of the samples, as described in previous work. Bacteria were applied onto a polished silicon crystal chip and allowed to adhere for 30 min. The samples were fixed with 2.5% glutaraldehyde in 0.1 M cacodylate buffer for 30 min at 4 °C, then washed in water and dehydrated in a series of methanol solutions (25%-50%-75%-100%-100%) in one-hour steps at 4 °C. Samples underwent critical point drying with methanol exchanged for liquid CO2 in an automatized approach, (CPD300 AUTO, Leica Microsystems, Vienna, Austria) and imaged with a cross-beam scanning electron microscope equipped with a Schottky field-emission cathode (Auriga 60, Carl Zeiss, Oberkochen, Germany) at 0.8 kV accelerating voltage. Thus, the imaging was performed within a mode referred to as the low-voltage, field-emission scanning electron microscopy (LV-FESEM) of nonlabeled, critical point-dried samples.
Figure 3 Scanning electron microscopy of drug-resistant Y. enterocolitica strain 2080. […] After exposure to compound 1 for nine passages, there were only fragments of organic debris visible (B). In the presence of compounds 7 and 3, there were multiple bacteria observed with apparently normal morphology. Scale bars: (A) and (B) 500 nm, (C) and (E) 2.5 μm, (D) and (F) 1 μm.

A further data set deals with mammalian cell culture. As to conditions: cited from earlier work.
Another data set concerns MRSA. As to conditions: after 20 passages; cited from earlier work.
The mark [8] stands for this setting: strain PCM 2080 grown with 200 μM compound 1 for at least nine generations.
The mark [9] stands for this setting: strain PCM 2080 grown with 200 μM compound 3 for at least nine generations.
The mark [10] stands for this setting: strain PCM 2080 grown with 200 μM compound 7 for at least nine generations.
Setting [11] is: 2 μM, up to day 5 post-exposure.
Setting [12] is: concentrations lower than 20 μM except 2 μM.

Like-named read-outs stand apart in the source and are kept apart here.

Regarding “Cs[8,8′-I2-3,3′-Co(1,2-C2B9H10)2] [Compound 1]”, the IC50 in data set [1] was 28.3 ± 6 µM; in data set [2] it was 11.4 ± 1 µM; in data set [3] it was 4.8 ± 3 µM; in data set [4], 2.5 ± 1.4 µM; in [5] (setting [8]), 2.6 ± 0.2 µM; in data set [5] (setting [9]) it was 4 ± 1 µM. Also, the IC50 in data set [5] (setting [10]) turned out to be 3.1 ± 1 µM; in the data set on BALB/3T3 it was 17 µM; with MCF 10A it was 59.8 µM. Moreover, the mortality entry in data set [6] (setting [11]) was “none of the animals died”; in data set [6] (20 μM, day 4), “lethal to all larvae”. In data set [6] (setting [12]), this substance yielded a mortality rate of 20%. The visible morphological deformities entry in [6] is listed as “induced visible morphological deformities”. Besides, in [7], the “bacterial growth seen under SEM” value is recorded as “generally inhibited bacterial growth”. The “mechanism of biological activity” value in data set [7] was “most likely being bactericidal”. Besides, the “change of ED50 versus COSAN” value in the data set with mammalian cell culture (mammalian cells) is “decreases the ED50 values approximately threefold”.
As for “[8-NH2-CHEt2-8′-I-3,3′-Co(1,2-C2B9H10)2] [Compound 8]”, the IC50 with BALB/3T3 turned out to be 0.023 µM; in the data set on MCF 10A, 0.045 µM.
Take “Cs[8-O-n-Bu-8′-I-3,3′-Co(1,2-C2B9H10)2] [Compound 2]”: the IC50 in [1] worked out at 28 ± 8 µM; in data set [2], 12.1 ± 4 µM; in data set [3] it was 4.3 ± 1.5 µM; in data set [4] it was 2.4 ± 0.7 µM; in the data set with BALB/3T3, 3.7 µM; in the data set with MCF 10A, 16.1 µM.
With “3,3′-commo-bis[closo-1,2-dicarba-3-cobaltadodecaborate](1-) [COSAN, reference compound]”, the “concentration that reversibly blocks cell growth” value in the data set with mammalian cell culture is recorded as “above 100 µM”.
On to “Cs[8-O-CHEt2-8′-I-3,3′-Co(1,2-C2B9H10)2] [Compound 4]”, for which the IC50 in [1] was 72 ± 30 µM; in data set [2], 52.9 ± 20 µM; in data set [3], 6.7 ± 2.3 µM; in data set [4], 5.3 ± 1 µM; in the data set with BALB/3T3 it was 11.3 µM; with MCF 10A, 50 µM. For the same substance, the mortality result in data set [6] (setting [11]) is “none of the animals died”; in data set [6] (20 μM, day 4) it was “lethal to all larvae”. In addition, the “mortality (share of the population)” value in data set [6] is no more than 20%. The substance further displayed a mortality rate in data set [6] (setting [12]) of 20%. Also, in data set [6], the visible morphological deformities result is given as “did not induce visible deformities”.
Regarding “Cs[8-O-cyclo-C6H11-8′-I-3,3′-Co(1,2-C2B9H10)2] [Compound 5]”, the IC50 turned out to be 52.1 ± 15 µM in data set [1]; 52.1 ± 10 µM in [2]; 7.5 ± 4 µM in data set [3]; 3.3 ± 1 µM in [4]; 11.7 µM in the data set with BALB/3T3; 46.3 µM in the data set on MCF 10A. Besides, in [6], the “mortality (share of the population)” value is reported as no more than 20%. Besides, the morphological deformities entry in [6] (20 μM) is recorded as “deformities of dorsal string”. Besides, in data set [6] (20 μM), the mortality rate turned out to be 20%. Further, the visible morphological deformities entry in data set [6] is “did not induce visible deformities”.
In the case of “[8-NH2-cyclo-C6H11-8′-I-3,3′-Co(1,2-C2B9H10)2] [Compound 9]”, the values for the IC50 with BALB/3T3 and in the data set with MCF 10A were 0.067 µM and 0.082 µM, respectively.
As to “[8-NH2-iso-Bu-8′-I-3,3′-Co(1,2-C2B9H10)2] [Compound 7]”, the IC50 was 24.7 ± 8 µM in data set [1]; 58.7 ± 20 µM in data set [2]; 1.8 ± 0.8 µM in [3]; 6.2 ± 0.7 µM in data set [4]; greater than 37 µM in data set [5] (setting [8]); greater than 100 µM in data set [5] (setting [9]). Moreover, the IC50 in data set [5] (setting [10]) is greater than 100 µM; in the data set with BALB/3T3, 0.024 µM; in the data set on MCF 10A, 0.115 µM. Further, the “bacterial growth seen under SEM” value in data set [7] was “did not inhibit the growth of bacteria”. For the same substance, in data set [7], the “mechanism of biological activity” value was “blockage of bacterial cell division”.
As to “[8-NH2-n-Bu-8′-I-3,3′-Co(1,2-C2B9H10)2] [Compound 6]”, the IC50 in the data set on BALB/3T3 turned out to be 0.29 µM.
For “Cs[8-O-iso-Bu-8′-I-3,3′-Co(1,2-C2B9H10)2] [Compound 3]”, the IC50 in data set [1] was 59 ± 30 µM; in data set [2], 16.9 ± 8 µM; in data set [3], 4.2 ± 1.8 µM; in [4] it was 3.4 ± 1 µM; in data set [5] (setting [8]), 4.7 ± 1 µM; in data set [5] (setting [9]) it was 10.4 ± 3 µM. Besides, the IC50 in data set [5] (setting [10]) was determined as 3.7 ± 1.2 µM; in the data set on BALB/3T3 it was 10.2 µM; with MCF 10A it was 52.5 µM. Also, the “bacterial growth seen under SEM” value in data set [7] is given as “did not inhibit the growth of bacteria”. The “mechanism of biological activity” value in data set [7] is “blockage of bacterial cell division”.
On to “8-ethoxy-8′-iodo derivative of cobalt bis(1,2-dicarbollide) [Compound K121]”, for which the generation of resistance entry in the data set on MRSA is “not able to generate resistance”.
